Reference: publication PMC10141580, “Cyclic Dichalcogenides Extend the Reach of Bioreductive Prodrugs to Harness Thiol/Disulfide Oxidoreductases: Applications to seco-Duocarmycins Targeting the Thioredoxin System” (ACS Central Science, 2023)
Read-outs that look alike come from different tables or passages of the source.

Test system: panel of 140 standard cancer cell lines
Assay: ProliFiler-140 cancer cell line screen (CellTiterGlo, 72 h)
Format: cell-based
Experimental: Incubations were performed for 72 h before automated viability readout with CellTiterGlo (Figure 8).
End of Figure S11 (part 5 of 5): ProliFiler-140 cancer cell line screening for cytotoxicity of the prodrugs.
8-data-point dose response curves from CellTiter-Glo® viability readout.
ProliFiler-140 cell line panel part V

Question: For `COc1cc2cc(C(=O)N3C[C@@H](CCl)c4c3cc(OC(=O)N3CCN(C(=O)CCC(=O)N5CCN(C)CC5)[C@H]5CSSC[C@H]53)c3ccccc43)[nH]c2c(OC)c1OC` [P-SS66C-CBI-TMI], which IC50 (read-out: IC50 [M] (ProliFiler-140), BxPC-3 (Pancreas)) is on record?
Answer: 4.6e-08 M

Question: What about the IC50 (read-out: IC50 [M] (ProliFiler-140), COR-L279 (Lung)) of the same compound?
Answer: 7.23e-09 M

Question: What about the IC50 (read-out: IC50 [M] (ProliFiler-140), COV434 (Ovary)) of the same compound?
Answer: 1.48e-08 M

Question: And the IC50 (read-out: IC50 [M] (ProliFiler-140), Calu-6 (Lung))?
Answer: 5.9e-08 M

Question: And the IC50 (read-out: IC50 [M] (ProliFiler-140), Colo 205 (Colon))?
Answer: 8.61e-08 M

Question: What about the IC50 (read-out: IC50 [M] (ProliFiler-140), DU-145 (Prostate)) of the same compound?
Answer: 1.62e-08 M

Question: And the IC50 (read-out: IC50 [M] (ProliFiler-140), EFM-19 (Breast))?
Answer: 3.12e-07 M

Question: And the IC50 (read-out: IC50 [M] (ProliFiler-140), EFO-27 (Ovary))?
Answer: 6.19e-08 M

Question: And the IC50 (read-out: IC50 [M] (ProliFiler-140), EPLC-272H (Lung))?
Answer: 4.6e-08 M

Question: What about the IC50 (read-out: IC50 [M] (ProliFiler-140), H460 (Lung)) of the same compound?
Answer: 5.51e-09 M

Question: What about the IC50 (read-out: IC50 [M] (ProliFiler-140), H1299 (Lung)) of the same compound?
Answer: 5.4e-08 M

Question: And the IC50 (read-out: IC50 [M] (ProliFiler-140), H2228 (Lung))?
Answer: 4.5e-08 M

Question: And the IC50 (read-out: IC50 [M] (ProliFiler-140), HCC202 (Breast))?
Answer: 9.13e-08 M

Question: What about the IC50 (read-out: IC50 [M] (ProliFiler-140), HCC827 (Lung)) of the same compound?
Answer: 9.11e-08 M

Question: And the IC50 (read-out: IC50 [M] (ProliFiler-140), HEC-1-B (Endometrium))?
Answer: 3.99e-07 M

Question: What about the IC50 (read-out: IC50 [M] (ProliFiler-140), HL-60 (Blood)) of the same compound?
Answer: 1.52e-08 M

Question: What about the IC50 (read-out: IC50 [M] (ProliFiler-140), HT-29 (Colon)) of the same compound?
Answer: 1.05e-07 M

Question: And the IC50 (read-out: IC50 [M] (ProliFiler-140), HT-1080 (Fibrosarcoma))?
Answer: 2.1e-08 M

Question: And the IC50 (read-out: IC50 [M] (ProliFiler-140), HeLa (Ovary))?
Answer: 9.9e-09 M

Question: What about the IC50 (read-out: IC50 [M] (ProliFiler-140), Hep3B2.1-7 (Liver)) of the same compound?
Answer: 1.72e-07 M

Question: What about the IC50 (read-out: IC50 [M] (ProliFiler-140), Hs 746T (Stomach)) of the same compound?
Answer: 7.52e-08 M

Question: What about the IC50 (read-out: IC50 [M] (ProliFiler-140), Hutu 80 (Duodenum)) of the same compound?
Answer: 9.6e-09 M

Question: And the IC50 (read-out: IC50 [M] (ProliFiler-140), Ishikawa (Endometrium))?
Answer: 3.84e-09 M

Question: What about the IC50 (read-out: IC50 [M] (ProliFiler-140), J82 (Bladder)) of the same compound?
Answer: 9.6e-08 M

Question: What about the IC50 (read-out: IC50 [M] (ProliFiler-140), JIMT-1 (Breast)) of the same compound?
Answer: 1.04e-07 M

Question: What about the IC50 (read-out: IC50 [M] (ProliFiler-140), JVM-3 (Blood)) of the same compound?
Answer: 3.4e-09 M

Question: And the IC50 (read-out: IC50 [M] (ProliFiler-140), Jurkat (Blood))?
Answer: 6.2e-09 M

Question: What about the IC50 (read-out: IC50 [M] (ProliFiler-140), K562 (Blood)) of the same compound?
Answer: 1.29e-07 M

Question: And the IC50 (read-out: IC50 [M] (ProliFiler-140), KG-1 (Blood))?
Answer: 1.9e-07 M

Question: And the IC50 (read-out: IC50 [M] (ProliFiler-140), LOU-NH91 (Lung))?
Answer: 3.45e-08 M

Question: And the IC50 (read-out: IC50 [M] (ProliFiler-140), LP-1 (Blood))?
Answer: 1.04e-07 M

Question: And the IC50 (read-out: IC50 [M] (ProliFiler-140), LnCap (Prostate))?
Answer: 2.75e-08 M

Question: And the IC50 (read-out: IC50 [M] (ProliFiler-140), MCF-7 (Breast))?
Answer: 3.05e-08 M

Question: What about the IC50 (read-out: IC50 [M] (ProliFiler-140), MDA-MB-468 (Breast)) of the same compound?
Answer: 1.87e-08 M

Question: What about the IC50 (read-out: IC50 [M] (ProliFiler-140), MEC-1 (Blood)) of the same compound?
Answer: 1.08e-08 M

Question: And the IC50 (read-out: IC50 [M] (ProliFiler-140), MKN-1 (Stomach))?
Answer: 1.38e-07 M

Question: What about the IC50 (read-out: IC50 [M] (ProliFiler-140), MOLM-13 (Blood)) of the same compound?
Answer: 5.25e-09 M

Question: And the IC50 (read-out: IC50 [M] (ProliFiler-140), MOLT-4 (Blood))?
Answer: 8.62e-09 M

Question: And the IC50 (read-out: IC50 [M] (ProliFiler-140), MV4-11 (Blood))?
Answer: 1.54e-09 M

Question: And the IC50 (read-out: IC50 [M] (ProliFiler-140), NALM-6 (Blood))?
Answer: 2.5e-09 M

Question: And the IC50 (read-out: IC50 [M] (ProliFiler-140), NCI-H82 (Lung))?
Answer: 8.78e-08 M

Question: And the IC50 (read-out: IC50 [M] (ProliFiler-140), NCI-H292 (Lung))?
Answer: 3.77e-08 M

Question: And the IC50 (read-out: IC50 [M] (ProliFiler-140), NCI-H838 (Lung))?
Answer: 7.44e-08 M

Question: What about the IC50 (read-out: IC50 [M] (ProliFiler-140), NCI-H1048 (Lung)) of the same compound?
Answer: 3.97e-09 M

Question: What about the IC50 (read-out: IC50 [M] (ProliFiler-140), NCI-H1563 (Lung)) of the same compound?
Answer: 1.14e-07 M

Question: And the IC50 (read-out: IC50 [M] (ProliFiler-140), NCI-H1573 (Lung))?
Answer: 8.97e-08 M

Question: And the IC50 (read-out: IC50 [M] (ProliFiler-140), NCI-H1581 (Lung))?
Answer: 4.7e-08 M

Question: And the IC50 (read-out: IC50 [M] (ProliFiler-140), NCI-H1703 (Lung))?
Answer: 5.11e-08 M

Question: And the IC50 (read-out: IC50 [M] (ProliFiler-140), NCI-H2110 (Lung))?
Answer: 1.81e-08 M

Question: And the IC50 (read-out: IC50 [M] (ProliFiler-140), NCI-H2286 (Lung))?
Answer: 1.67e-08 M

Question: And the IC50 (read-out: IC50 [M] (ProliFiler-140), NCI-N87 (Stomach))?
Answer: 7.55e-08 M

Question: What about the IC50 (read-out: IC50 [M] (ProliFiler-140), OCI-AML3 (Blood)) of the same compound?
Answer: 1.32e-08 M

Question: What about the IC50 (read-out: IC50 [M] (ProliFiler-140), OCI-AML5 (Blood)) of the same compound?
Answer: 5.98e-09 M

Question: What about the IC50 (read-out: IC50 [M] (ProliFiler-140), OCI-LY19 (Blood)) of the same compound?
Answer: 2.8e-09 M

Question: And the IC50 (read-out: IC50 [M] (ProliFiler-140), OPM-2 (Blood))?
Answer: 2.6e-08 M

Question: What about the IC50 (read-out: IC50 [M] (ProliFiler-140), OV56 (Ovary)) of the same compound?
Answer: 7.2e-08 M

Question: What about the IC50 (read-out: IC50 [M] (ProliFiler-140), OVCAR-3 (Ovary)) of the same compound?
Answer: 7.88e-08 M

Question: And the IC50 (read-out: IC50 [M] (ProliFiler-140), OVK18 (Ovary))?
Answer: 4.6e-08 M

Question: What about the IC50 (read-out: IC50 [M] (ProliFiler-140), P31/FUJ (Blood)) of the same compound?
Answer: 2.25e-08 M

Question: What about the IC50 (read-out: IC50 [M] (ProliFiler-140), PC3 (Prostate)) of the same compound?
Answer: 4e-08 M

Question: What about the IC50 (read-out: IC50 [M] (ProliFiler-140), PC-9 (Lung)) of the same compound?
Answer: 1.41e-08 M

Question: And the IC50 (read-out: IC50 [M] (ProliFiler-140), RERF-LC-Ad2 (Lung))?
Answer: 1.42e-07 M

Question: And the IC50 (read-out: IC50 [M] (ProliFiler-140), RKO (Colon))?
Answer: 2.1e-08 M

Question: And the IC50 (read-out: IC50 [M] (ProliFiler-140), SCH (Stomach))?
Answer: 1.52e-08 M

Question: What about the IC50 (read-out: IC50 [M] (ProliFiler-140), SCLC-21H (Lung)) of the same compound?
Answer: 2.6e-08 M

Question: And the IC50 (read-out: IC50 [M] (ProliFiler-140), SK-ES-1 (Bone))?
Answer: 2.7e-09 M

Question: What about the IC50 (read-out: IC50 [M] (ProliFiler-140), SK-MEL-3 (Skin)) of the same compound?
Answer: 1.55e-07 M

Question: What about the IC50 (read-out: IC50 [M] (ProliFiler-140), SK-N-MC (Brain)) of the same compound?
Answer: 1.61e-09 M

Question: What about the IC50 (read-out: IC50 [M] (ProliFiler-140), SK-N-SH (Brain)) of the same compound?
Answer: 1.15e-07 M

Question: And the IC50 (read-out: IC50 [M] (ProliFiler-140), SK-OV3 (Ovary))?
Answer: 3.7e-08 M

Question: What about the IC50 (read-out: IC50 [M] (ProliFiler-140), SNU-1 (Stomach)) of the same compound?
Answer: 2.27e-08 M

Question: And the IC50 (read-out: IC50 [M] (ProliFiler-140), SNU-216 (Stomach))?
Answer: 9.2e-08 M

Question: What about the IC50 (read-out: IC50 [M] (ProliFiler-140), SU-DHL-5 (Blood)) of the same compound?
Answer: 2.55e-09 M

Question: What about the IC50 (read-out: IC50 [M] (ProliFiler-140), SW480 (Colon)) of the same compound?
Answer: 5.5e-08 M

Question: What about the IC50 (read-out: IC50 [M] (ProliFiler-140), SW-1783 (Brain)) of the same compound?
Answer: 4.8e-08 M

Question: And the IC50 (read-out: IC50 [M] (ProliFiler-140), Saos-2 EC (Bone))?
Answer: 6.6e-08 M

Question: What about the IC50 (read-out: IC50 [M] (ProliFiler-140), T98G (Brain)) of the same compound?
Answer: 8.1e-08 M

Question: And the IC50 (read-out: IC50 [M] (ProliFiler-140), T-47D (Breast))?
Answer: 9.75e-08 M

Question: What about the IC50 (read-out: IC50 [M] (ProliFiler-140), U118MG (Brain)) of the same compound?
Answer: 1.9e-07 M

Question: What about the IC50 (read-out: IC50 [M] (ProliFiler-140), U251MG (Brain)) of the same compound?
Answer: 1.18e-07 M

Question: And the IC50 (read-out: IC50 [M] (ProliFiler-140), U-266 (Blood))?
Answer: 9.4e-09 M

Question: And the IC50 (read-out: antiproliferative IC50 range, range over 140 cell lines)?
Answer: 1e-09 to 1e-07 M

Question: And the Reductive Activation Index (span over ProliFiler-140 cell lines)?
Answer: up to 30 fold
